Data taken from PubChem BioAssay (NCI).
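Five concentrations, 48 hours, 96-well plates. Abbreviation: GI50, concentration required for 50% inhibition of growth. Definition used: TGI = concentration required for complete inhibition of growth.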

What was measured:
Assay in all cases: DTP human tumour cell line panel, 48 h
786-0 renal = system: 786-0 renal
CAKI-1 renal = system: CAKI-1 renal
HOP-92 NSCLC = system: HOP-92 NSCLC
LOX IMVI melanoma = system: LOX IMVI melanoma
M14 melanoma = system: M14 melanoma
MCF7 breast = system: MCF7 breast
OVCAR-8 ovarian = system: OVCAR-8 ovarian
PC-3 prostate = system: PC-3 prostate
SF-295 CNS = system: SF-295 CNS
MOLT-4 leukemia = system: MOLT-4 leukemia

SMILES | TGI (786-0 renal) | TGI (CAKI-1 renal) | TGI (HOP-92 NSCLC) | TGI (LOX IMVI melanoma) | TGI (M14 melanoma) | TGI (MCF7 breast) | TGI (OVCAR-8 ovarian) | TGI (PC-3 prostate) | TGI (SF-295 CNS) | TGI (MOLT-4 leukemia) | GI50 (CAKI-1 renal) | GI50 (HOP-92 NSCLC) | GI50 (LOX IMVI melanoma) | GI50 (M14 melanoma) | GI50 (MCF7 breast) | GI50 (MOLT-4 leukemia) | GI50 (OVCAR-8 ovarian) | GI50 (PC-3 prostate) | GI50 (SF-295 CNS)
COc1cc(NCc2ccc3n2-c2ccccc2OC3)cc(OC)c1OC | > 100 µM | 74.5 µM | 51.3 µM | 27.4 µM | > 100 µM | 40.6 µM | > 100 µM | 87.1 µM | 63.9 µM | – | – | – | – | – | – | – | – | – | –
CC[N+](CC)(CC)/C(=N/S(=O)(=O)c1cc(C)c(Cl)cc1S)[N-]S(=O)(=O)c1ccc(Cl)cc1 | > 100 µM | > 100 µM | 49.7 µM | > 100 µM | > 100 µM | > 100 µM | > 100 µM | > 100 µM | > 100 µM | > 100 µM | – | – | – | – | – | – | – | – | –
C=CCC1=CC2(OC)C(=O)C(OC)(OC)C1C1C(OC)(OC)C(=O)C(OC)=CC12CC=C (stereo not given) | > 100 µM | > 100 µM | > 100 µM | > 100 µM | > 100 µM | > 100 µM | > 100 µM | > 100 µM | > 100 µM | > 100 µM | – | – | – | – | – | – | – | – | –
CCOC(=O)c1c(N2CCOCC2)[nH]c(=O)c(C(c2ccc(Cl)c([N+](=O)[O-])c2)c2c(O)c(C(=O)OCC)c(N3CCOCC3)[nH]c2=O)c1O | > 100 µM | > 100 µM | 69.4 µM | 48.1 µM | 58.5 µM | 69.6 µM | 37 µM | 50.1 µM | > 100 µM | 57.8 µM | – | – | – | – | – | – | – | – | –
NC(N)=N/N=C/c1ccc(O)c(C(=O)O)c1 | > 100 µM | > 100 µM | > 100 µM | > 100 µM | > 100 µM | > 100 µM | > 100 µM | > 100 µM | > 100 µM | > 100 µM | – | – | – | – | – | – | – | – | –
CCOc1ccc2c(c1)NC(=O)C(C1OC(c3ccccc3)=CC1=O)S2 (stereo not given) | 80.5 µM | > 100 µM | – | 67 µM | > 100 µM | 30.4 µM | 55.7 µM | 51.4 µM | 83.5 µM | – | – | – | – | – | – | – | – | – | –
CCCc1ccc(OCC(=O)N/N=C/c2c(-c3ccccc3)[nH]c3ccccc23)cc1 | 35.7 µM | > 100 µM | 35.3 µM | 21.6 µM | 28.2 µM | 54.3 µM | 53.4 µM | 29.4 µM | 34.4 µM | 30.4 µM | – | – | – | – | – | – | – | – | –
O=C(CCO)OCCCCCC/C=C\CCCCCC/C=C\CCCCCCCCOC(=O)CCO | 32.5 µM | 39.3 µM | 32.5 µM | 36.6 µM | 30.9 µM | 40.3 µM | 36.3 µM | 30.8 µM | 35.5 µM | 28.6 µM | – | – | – | – | – | – | – | – | –
C[C@]12CC[C@H](O)CC1=CC[C@@H]1[C@@H]2CC[C@]2(C)C(=O)CC[C@@H]12 | > 100 µM | > 100 µM | – | > 100 µM | > 100 µM | > 100 µM | > 100 µM | > 100 µM | > 100 µM | > 100 µM | – | – | – | – | – | – | – | – | –
Cc1cc(=O)[nH]c2c3c(ccc12)OC(C)(C)C=C3 | > 62.7 µM | > 100 µM | > 100 µM | – | > 100 µM | > 100 µM | > 100 µM | > 100 µM | > 80.4 µM | > 100 µM | – | – | – | – | – | – | – | – | –
CC(C)(C)c1cc(C(C)(C)C)c2sc(=S)oc2c1O | 22.6 µM | 18.6 µM | 28.9 µM | 17.7 µM | 32.4 µM | 27.4 µM | 20.9 µM | 13.8 µM | 23.5 µM | > 40.8 µM | – | – | – | – | – | – | – | – | –
FC(F)(F)C1=NC(=NNc2nnc(-c3ccccc3)c(-c3ccccc3)n2)N=C(C(F)(F)F)C1 | – | > 100 µM | > 87.3 µM | > 100 µM | – | > 100 µM | > 100 µM | – | > 100 µM | > 100 µM | – | – | – | – | – | – | – | – | –
O=c1cc(-c2nc3ccccc3[nH]2)[nH]c2nc(-c3nc4ccccc4[nH]3)cc(-c3ccc(Cl)cc3)c12 | – | 76 µM | 55 µM | 31.8 µM | 62.5 µM | 36.3 µM | > 100 µM | > 100 µM | 48.2 µM | 96.4 µM | – | – | – | – | – | – | – | – | –
COc1ccc(-n2cc(-c3ccc(OC)c(OC)c3)nc2SCc2ccccc2)cc1Cl | – | > 100 µM | 38.6 µM | > 100 µM | > 100 µM | > 100 µM | > 100 µM | > 100 µM | > 100 µM | > 100 µM | 41.7 µM | 6.13 µM | 34.7 µM | 26 µM | 24 µM | 21.2 µM | 25.9 µM | 13.8 µM | 17.4 µM
Cc1onc(-c2c(F)cccc2Cl)c1C(=O)N[C@@H]1C(=O)N2[C@@H]1SC(C)(C)[C@@H]2C(=O)O | > 100 µM | > 100 µM | > 100 µM | – | > 100 µM | > 100 µM | > 100 µM | > 100 µM | > 100 µM | – | – | – | – | – | – | – | – | – | –
O=C(Nc1ccc(F)cc1)c1cc2ccc(O)cc2oc1=Nc1ccccc1F | > 100 µM | > 100 µM | – | 49.6 µM | – | > 100 µM | 36.7 µM | > 100 µM | > 100 µM | > 100 µM | – | – | – | – | – | – | – | – | –
